Laboratory results taken from the NIST ThermoML archive (doi:10.1021/je0496950).
± gives the expanded uncertainty stated by the source.

Test: mn = molality of the nth substance listed, in mol/kg
Conditions: 101 kPa, Liquid; for speed of sound: Pulse-echo method

[Mn+2].[O-][Cl+3]([O-])([O-])[O-].[O-][Cl+3]([O-])([O-])[O-] [manganese (II) perchlorate] + CC#N
Conditions	mass density, 288.15 K [kg/m3]	mass density, 293.15 K [kg/m3]	mass density, 298.15 K [kg/m3]	mass density, 303.15 K [kg/m3]	mass density, 308.15 K [kg/m3]	mass density, 313.15 K [kg/m3]	mass density, 323.15 K [kg/m3]	speed of sound, 298.15 K [m/s]
m1 = 0.07666	–	–	–	–	–	–	–	1282.8 ± 1.4
m1 = 0.08738	–	–	–	–	–	–	–	1283.5 ± 1.4
m1 = 0.1308	812.076 ± 0.7	806.744 ± 0.71	801.389 ± 0.72	796.009 ± 0.73	790.599 ± 0.73	785.164 ± 0.74	774.198 ± 0.76	1286 ± 1.4
m1 = 0.1732	820.267 ± 0.7	814.947 ± 0.7	809.604 ± 0.71	804.238 ± 0.72	798.846 ± 0.72	793.424 ± 0.73	782.485 ± 0.75	1288.4 ± 1.4
m1 = 0.216	828.628 ± 0.69	823.32 ± 0.69	817.989 ± 0.7	812.633 ± 0.71	807.252 ± 0.71	801.843 ± 0.72	790.933 ± 0.73	1290.8 ± 1.4
m1 = 0.257	836.778 ± 0.68	831.471 ± 0.69	826.148 ± 0.69	820.803 ± 0.7	815.431 ± 0.7	810.032 ± 0.71	799.145 ± 0.73	1293 ± 1.4
m1 = 0.298	845.062 ± 0.67	839.769 ± 0.68	834.455 ± 0.68	829.123 ± 0.69	823.764 ± 0.7	818.379 ± 0.7	807.522 ± 0.72	1295.3 ± 1.4
m1 = 0.3364	852.972 ± 0.66	847.683 ± 0.67	842.377 ± 0.67	837.051 ± 0.68	831.7 ± 0.69	826.326 ± 0.69	815.497 ± 0.71	1297.9 ± 1.4
m1 = 0.3745	860.854 ± 0.66	855.574 ± 0.66	850.277 ± 0.67	844.96 ± 0.67	839.624 ± 0.68	834.26 ± 0.69	823.454 ± 0.7	1300.3 ± 1.4
m1 = 0.4122	868.75 ± 0.65	863.479 ± 0.65	858.191 ± 0.66	852.884 ± 0.66	847.554 ± 0.67	842.203 ± 0.68	831.418 ± 0.69	1302.7 ± 1.4

[Ni+2].[O-][Cl+3]([O-])([O-])[O-].[O-][Cl+3]([O-])([O-])[O-] [nickel perchlorate] + CC#N
Conditions	mass density, 288.13 K [kg/m3]	mass density, 293.15 K [kg/m3]	mass density, 298.15 K [kg/m3]	mass density, 303.15 K [kg/m3]	mass density, 308.15 K [kg/m3]	mass density, 313.15 K [kg/m3]	mass density, 323.15 K [kg/m3]	speed of sound, 298.15 K [m/s]
m1 = 0.0492	797.088 ± 0.73	791.73 ± 0.73	786.35 ± 0.74	780.945 ± 0.75	775.512 ± 0.76	770.049 ± 0.76	759.023 ± 0.78	–
m1 = 0.04923	–	–	–	–	–	–	–	1281.8 ± 1.4
m1 = 0.08198	–	–	–	–	–	–	–	1284 ± 1.4
m1 = 0.082	803.621 ± 0.72	798.268 ± 0.73	792.896 ± 0.73	787.511 ± 0.74	782.087 ± 0.75	776.641 ± 0.76	765.646 ± 0.77	–
m1 = 0.1087	809.018 ± 0.71	803.673 ± 0.72	798.312 ± 0.73	792.927 ± 0.73	787.516 ± 0.74	782.077 ± 0.75	771.11 ± 0.76	1285.8 ± 1.4
m1 = 0.135	814.36 ± 0.71	809.021 ± 0.71	803.671 ± 0.72	798.291 ± 0.73	792.889 ± 0.73	787.46 ± 0.74	776.511 ± 0.76	1287.5 ± 1.4
m1 = 0.1611	819.735 ± 0.7	814.406 ± 0.71	809.058 ± 0.71	803.686 ± 0.72	798.299 ± 0.73	792.88 ± 0.73	781.957 ± 0.75	1289.4 ± 1.4
m1 = 0.1844	824.54 ± 0.69	819.217 ± 0.7	813.878 ± 0.71	808.519 ± 0.71	803.134 ± 0.72	797.731 ± 0.73	786.838 ± 0.74	1290.9 ± 1.4
m1 = 0.2114	830.147 ± 0.69	824.83 ± 0.7	819.495 ± 0.7	814.141 ± 0.71	808.766 ± 0.72	803.366 ± 0.72	792.486 ± 0.74	1292.7 ± 1.4
m1 = 0.2353	835.248 ± 0.68	829.938 ± 0.69	824.608 ± 0.7	819.261 ± 0.7	813.893 ± 0.71	808.502 ± 0.72	797.637 ± 0.73	1294.1 ± 1.4
m1 = 0.2607	840.618 ± 0.68	835.309 ± 0.68	829.987 ± 0.69	824.647 ± 0.7	819.287 ± 0.7	813.905 ± 0.71	803.067 ± 0.72	1295.8 ± 1.4
